Legend:
[1] = tested on: spinal cord motor neurons; assay: Spinal motor neuron survival (ChAT) in G93A-SOD1 mice, treatment from disease onset (day 80); assay type: in vivo, mouse; conditions: 20 mg/kg/day from day 80; days 90-120
Protocol: FIG. 34A and FIG. 34B. P7C3A20 and P7C3 block motor neuron cell death in the spinal cord when administered at the time of disease onset to G93A-SOD1 mutant mice. Treatment of G93A-SOD1 mutant mice with 20 mg/kg/d of P7C3A20, P7C3 or Dimebon, or the appropriate vehicle, was initiated on day 80. Five mice from each group were sacrificed on days 90, 100, 110 and 120. The number of spinal cord motor neurons per cubic millimeter of lumbar spinal cord was determined through immunohistochemical staining for ChAT and quantification with NIH Image J software. All images were analyzed blind to treatment group. Spinal cord motor neurons in G93A-SOD1 mutant mice died over time as expected. Spinal cord motor neuron cell death was blocked by administration of P7C3A20. P7C3 was intermediately protective, while Dimebon had no neuroprotective efficacy. (FIG. 34A) Representative staining of ChAT of one ventral horn from each of the 5 mice in each treatment group at 110 days. (FIG. 34B) Graph representation.
Based on the promising results of early (day 40) administration of P7C3 to G93A-SOD1 mutant mice, we next sought to determine whether P7C3A20, P7C3 or Dimebon could protect ventral horn spinal motor neurons when administered at the expected time of disease onset (day 80). We initiated administration of either P7C3, P7C3A20 or Dimebon, each at a dose of 20 mg/kg/day, and analyzed motor neuron cell survival by staining lumbar spinal sections for choline acetyltransferase (ChAT). ChAT, the enzyme that synthesizes the neurotransmitter acetylcholine, serves as a marker for spinal cord motor neurons. All sections were counted blind to treatment group in order to quantify motor neuron survival, and five mice for each treatment group were analyzed at 90, 100, 110 and 120 days. Each treatment group was compared to its own sibling-matched group that received the corresponding vehicle. […]

[2] = tested on: dopaminergic neurons in C. elegans; assay: MPP+ toxicity to dopaminergic neurons in C. elegans; assay type: in vivo; conditions: for protection of dopaminergic neurons from MPP+: 10 μM, 5 mM MPP+ for 40 hrs
Protocol: FIG. 31. Neuroprotective efficacy of P7C3 and P7C3A20 for MPP^+ toxicity to dopaminergic neurons in C. elegans. Worms were treated with 5 mM MPP^+ for 40 hrs, with pre-incubation for 30 minutes with different concentrations of test compounds or vehicle. […] By contrast, GFP expression was lost after 40 hrs of MPP^+ exposure (unfilled arrow). […] 20 worms were analyzed per group, and each group was performed in triplicate. Data are expressed as mean±SEM.
Genes, metabolic signaling pathways, neurotransmitters and receptor pharmacology are highly conserved between C. elegans and vertebrates, and exposure of C. elegans to MPP^+ has been reported to selectively kill dopaminergic neurons and impair mobility. To investigate the neuroprotective efficacy of P7C3A20, P7C3 and Dimebon from MPP^+ toxicity in C. elegans, we monitored dopaminergic cell death in a transgenic strain of worms in which dopaminergic neurons fluoresce green by virtue of GFP expression driven by the dopaminergic neuron-specific promoter dat-1. […] Cephalic sensilla dopaminergic dendrites were observed under 40× magnification (AMG, Evos fl microscope), and GFP signal was followed from the nerve ring to the tip of the nose, following established protocols. If any part of a dendrite was absent, as evidenced by loss of GFP signal, it was counted as degraded. All analyses were performed blind to treatment group.
Synchronized L1 larvae were plated into each well of a 12-well plate (approximately 400 larvae per well) containing PBS, Vehicle or compounds, with or without 5 mM MPP^+ iodide (Sigma) freshly diluted in PBS. DMSO was used as vehicle (VEH) and the concentration in treatment groups was maintained below 1%. The assay solution ([…]) was incubated for 40 hrs at 20 degrees Celsius. The worms were then washed in dH2O and supernatant was aspirated. To examine dopaminergic neuron toxicity, worms were anesthetized (0.1% tricaine, 0.01% tetramizole) for 5 min and then transferred to microscope slides and coverslipped. Pictures were taken at 40× magnification (AMG, Evos fl microscope). Each experiment was conducted in triplicate with 10-20 worms counted per condition. For quantification, investigators were blind to treatment condition. Quantification was done by observing all four cephalic sensilla (CEP) dendrites, per standard protocol. Briefly, GFP fluorescence was visualized from the nerve ring to the tip of the nose, and if any portion of a dendrite was absent then it was counted as being degenerated.

Row | Structure (SMILES) | spinal motor neuron cell death [1] | onset of neuroprotective efficacy ([2]; 1.0 μM) [%] | protection of dopaminergic neurons from MPP+ [2] | onset of neuroprotective efficacy ([2]; 0.1 μM) [%]
1 | OC(CNc1ccccc1)Cn1c2ccc(Br)cc2c2cc(Br)ccc21 (centres unmarked) [Example P7C3] | provided intermediate protection on days 100 (p=0.048) and 110 (p=0.01) | 35 | about 50% | 
2 | COc1cccc(NCC(F)Cn2c3ccc(Br)cc3c3cc(Br)ccc32)c1 (centres unmarked) [Example P7C3A20, N-(3-(3,6-dibromo-9H-carbazol-9-yl)-2-fluoropropyl)-3-methoxyaniline] | provided significant protection from spinal motor neuron cell death |  | 80% | 30
3 | Cc1ccc2c(c1)c1c(n2CCc2ccc(C)nc2)CCN(C)C1 [Dimebon, 2,3,4,5-Tetrahydro-2,8-dimethyl-5-(2-(6-methyl-3-pyridyl)ethyl)-1H-pyrido(4,3-b)indole, reference compound] | indistinguishable from vehicle treatment groups |  | failed to protect dopaminergic neurons | 

Source: patent US10183011B2, “Anti-depression compounds” (Board of Regents of the University of Texas System, priority 2009, dated 2019)
